Assays:
[1] = Thermogravimetric analysis (TGA), volatility; type: physicochemical; settings: for volatilization behavior / decomposition in TGA / T1/2 (temperature at which one-half of the sample has been evaporated): 20 mg sample, 10° C./min, argon; for T1/2 (temperature at which one-half of the sample has been evaporated): TGA; for T1/2 volatility: Table III, comparative data
Description: A thermogravimetric analysis (TGA) of the product was carried out on a 20 mg sample of the material, heated at a rate of 10° C./min under an argon atmosphere. A thermogravimetric curve resulting from such a study, identified as "TGA-Mg(hfa)2.1,2-DME", is reproduced in FIG. 1 of the drawing.

[2] = Vapor pressure; type: physicochemical
[3] = Thermal stability, heating in evacuated/sealed ampoules at 200° C. for 24 hours; type: physicochemical; settings: ampoule, compared with corresponding THF adduct
Description: The thermal stability of Mg(hfa)2.1,2-DME is evidenced not only by the TGA data set forth in FIG. 1, but also by investigations as to the extent and nature of the decomposition of Mg(hfa)2.1,2-DME after prolonged heating at temperatures in the 100°-200° C. range.
As in the case of the magnesium complex, the thermal stability of Zn(hfa)2.1,2-DME is evidenced not only by the observed rapid and complete TGA volatilization behavior shown in FIG. 2, but also by measuring residual gas pressure after heating a sample of the material in a sealed ampoule at 200° C. for 24 hours.

[4] = at 200° C.; EP No. 0103446; cited from earlier work

Structure (SMILES)	volatilization behavior / decomposition in TGA ([1]; in words)	T1/2 (temperature at which one-half of the sample has been evaporated) [1]	T1/2 volatility [1]	residual pressure after heating [3]	sample discoloration after heating [3]	also measured
COCCOC.O=C(C=C([O-])C(F)(F)F)C(F)(F)F.O=C(C=C([O-])C(F)(F)F)C(F)(F)F.[Zn+2] [Zn(hfa)2.1,2-DME]	rapid and complete vaporization over a narrow range of temperatures, indicating no detectable thermal decomposition	162 °C	162 °C	lower residual pressure	less discoloration	T1/2 temperature compared with Zn(hfa)2.2THF ([1]; same TGA conditions, in words): only slightly higher than the T1/2 temperature of Zn(hfa)2.2THF; vapor pressure ([2]; at 125° C.): about 16 mm (Hg)
O=C(C=C([O-])C(F)(F)F)C(F)(F)F.O=C(C=C([O-])C(F)(F)F)C(F)(F)F.[Zn+2].c1cnc2c(c1)ccc1cccnc12 [Zn(hfa)2.1,10-phenanthroline, reference compound]	–	–	310 °C	–	–	–
COCCOC.O=C(C=C([O-])C(F)(F)F)C(F)(F)F.O=C(C=C([O-])C(F)(F)F)C(F)(F)F.[Mg+2] [Mg(hfa)2.1,2-DME]	rapid and complete volatilization of the complex over a narrow temperature range, indicating the absence of detectable decomposition	about 170 °C	170 °C	lower residual pressure	less discoloration	vapor pressure ([2]; at about 120° C.): 10 mm (Hg)
C1CCOC1.C1CCOC1.O=C(C=C([O-])C(F)(F)F)C(F)(F)F.O=C(C=C([O-])C(F)(F)F)C(F)(F)F.[Mg+2] [Mg(hfa)2.2THF, reference compound]	–	180 °C	–	–	–	volatilization without decomposition [4]: can be volatilized without decomposition
O=C(C=C([O-])C(F)(F)F)C(F)(F)F.O=C(C=C([O-])C(F)(F)F)C(F)(F)F.[Mg+2].c1cnc2c(c1)ccc1cccnc12 [Mg(hfa)2.1,10-phenanthroline, reference compound]	–	–	295 °C	–	–	–
O=C(C=C([O-])C(F)(F)F)C(F)(F)F.O=C(C=C([O-])C(F)(F)F)C(F)(F)F.[Zn+2].c1ccc(-c2ccccn2)nc1 [Zn(hfa)2.2,2'-bipyridine, reference compound]	–	–	295 °C	–	–	–
